Laboratory results from patent US10315996B2, “ROR gamma (RORγ) modulators” (LEAD PHARMA HOLDING B.V., priority 2015, dated 2019).

What was measured:
[1] = target: T1, RORγ (Homo sapiens, UniProt P51449); experiment: RORγ GAL4 reporter gene assay; format: cell-based; settings: inhibition of RORγ activity, GAL4-RORγ-LBD luciferase reporter in 293FT cells, overnight incubation; read-out: mean pIC50 (converted)
T1 construct: expressed in transfected cells; host or cells: 293FT cells (Invitrogen), expression vector pFN26A (Promega)
T1 sequence (P51449 269-508 limits assumed): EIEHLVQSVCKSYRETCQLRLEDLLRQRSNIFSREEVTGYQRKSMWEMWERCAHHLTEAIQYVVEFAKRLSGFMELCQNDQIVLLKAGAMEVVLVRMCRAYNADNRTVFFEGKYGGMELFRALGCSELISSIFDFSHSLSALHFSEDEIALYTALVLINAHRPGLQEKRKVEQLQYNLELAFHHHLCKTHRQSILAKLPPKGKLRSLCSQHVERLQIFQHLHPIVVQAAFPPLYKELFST
Procedure, shortened: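 293FT cells were transiently co-transfected with GAL4-DBD–RORγ-LBD (or GAL4-VP16 control) and a 9×UAS luc2P reporter, then plated at 60,000 cells/well. Compound was added at final 0.2% DMSO for 16-24 h at 37 °C, and inhibition was measured by firefly luciferase luminescence.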

[2] = tested on: IL-17A production in anti-CD3/anti-CD28 stimulated peripheral blood mononuclear cells (PBMCs); experiment: Peripheral blood mononuclear cell (PBMC) IL-17 assay; format: cell-based; settings: Homo sapiens, 120 h, inhibition of IL-17A production, PBMCs isolated from human blood, 5 days incubation, IL-17 ELISA, read-out: mean pIC50 (converted)
Method: PBMC IL-17 Assay Description
This assay is designed to measure the levels of IL-17A secreted from anti-CD3/anti-CD28 stimulated PBMCs with the aim of measuring RORγ mediated inhibition of IL-17A production.
The assay medium consists of 90% RPMI 1640 (Lonza), 10% heat inactivated fetal bovin serum (FBS, Lonza) and 100 U/mL penicillin/streptomycin solution.
Anti-CD3 antibody (BD Pharmingen) was diluted to 10 μg/ml in PBS (Lonza). 30 μL of 10 μg/ml anti-CD3 solution was added to the inner 60 wells, excluding any negative control wells, of a 96-well cell culture treated U-bottom plate (Greiner). Plates were incubated overnight (16-24 hours) at 37° C. and 5% CO2.
Peripheral blood mononuclear cells were separated from buffy coats (Sanquin) using Ficoll-Paque PREMIUM separation medium (GE Healthcare Life Sciences) according to manufacturer's protocol and re-suspended in assay medium at 37° C.
Test compounds were diluted, starting from a 10 mM dimethylsulfoxide (DMSO) stock solution, to serial dilutions in DMSO at 200× the final test concentration. Subsequently, these solutions were diluted in two dilution steps in assay medium to 10× the final test concentration. The DMSO concentration of the 10× test compound solution was 5%.
Anti-CD28 antibody (BD Pharmingen) was diluted to 20 μg/mL in PBS. The PBMCs were diluted to a concentration of 2.5×10^6 cells/mL in assay medium at 37° C.
For compound screening, the anti-CD3 coated plates were washed three times with PBS, the wells were subsequently aspirated using vacuum. To each screening well 80 μL of the PBMC suspension, 10 μL of the anti-CD28 solution and 10 μL of the 10× test compound solution was added, resulting in the final test concentration with 0.5% DMSO. All outer wells were filled with assay medium to prevent evaporation. Plates were incubated for 5 days at 37° C. and 5% CO2.
After incubation the plates were spun down at 1500 rpm for 4 minutes and the supernatant was collected. Subsequently, the IL-17A levels in the supernatants was determined using an IL-17 ELISA kit (human IL-17 DuoSet, R&D systems) according to manufacturer's protocol.
The half maximum inhibitory concentration ([…]) values for the test compounds were calculated from the IL-17A signal using GraphPad Prism software (GraphPad Software).

| Structure (SMILES) | IC50 [1] [µM] | IC50 [2] [µM] |
| --- | --- | --- |
| CC(C)(NC(=O)c1ccc(NC(=O)Cc2ccc(S(=O)(=O)CC3CC3)cc2)cc1)c1ccccc1 [Example 6, 4-[2-(4-cyclopropylmethanesulfonylphenyl)acetamido]-N-(2-phenylpropan-2-yl)benzamide] | ≤ 0.1 | ≤ 1 |
| CCN(C(=O)c1ccc(NC(=O)Cc2ccc(S(=O)(=O)NC3CC3)cc2)cc1)c1ccc(C)cc1 [Example 45, 4-{2-[4-(cyclopropylsulfamoyl)phenyl]acetamido}-N-ethyl-N-(4-methylphenyl) benzamide] | ≤ 0.01 | ≤ 1 |
| O=C(Cc1ccc(S(=O)(=O)CC2CC2)cc1)Nc1ccc(C(=O)N2CCCC2c2ccccc2)cc1 (stereo not drawn) [Example 35, 2-(4-cyclopropylmethanesulfonylphenyl)-N-[4-(2-phenylpyrrolidine-1-carbonyl)phenyl]acetamide] | ≤ 0.1 |  |
| Cc1cccc(C)c1NC(=O)c1ccc(NC(=O)Cc2ccc(S(=O)(=O)CC3CC3)cc2)cc1 [Example 75, 4-[2-(4-cyclopropylmethanesulfonylphenyl)acetamido]-N-(2,6-dimethylphenyl) benzamide] | ≤ 0.1 |  |
| O=C(Cc1ccc(S(=O)(=O)CC2CC2)cc1)Nc1ccc(C(=O)NCc2ccccc2)cc1 [Example 13, N-benzyl-4-[2-(4-cyclopropylmethanesulfonylphenyl)acetamido]benzamide] | ≤ 1 |  |
| O=C(Cc1ccc(S(=O)(=O)CC2CC2)cc1)Nc1ccc(C(=O)N2CCCCC2)cc1 [Example 36, 2-(4-cyclopropylmethanesulfonylphenyl)-N-[4-(piperidine-1-carbonyl)phenyl]acetamide] | ≤ 1 |  |
| CC(C)(C)N(C(=O)c1ccc(NC(=O)Cc2ccc(S(=O)(=O)CC3CC3)cc2)cc1)c1ccccc1 [Example 130, N-tert-butyl-4-[2-(4-cyclopropylmethanesulfonylphenyl)acetamido]-N-phenylbenzamide] | ≤ 0.01 |  |
| Cc1cc(NC(=O)Cc2ccc(S(=O)(=O)CC3CC3)cc2)ccc1C(=O)N(C)c1ccccc1F [Example 165, 4-[2-(4-cyclopropylmethanesulfonylphenyl)acetamido]-N-(2-fluorophenyl)-N,2-dimethylbenzamide] | ≤ 0.1 |  |

Second part, led by results:

| IC50 [1] [µM] | Structure (SMILES) | IC50 [2] [µM] |
| --- | --- | --- |
| ≤ 0.1 | C[C@H](NC(=O)c1ccc(NC(=O)Cc2ccc(S(=O)(=O)CC3CC3)cc2)cc1)c1ccccc1F [Example 71, 4-[2-(4-cyclopropylmethanesulfonylphenyl)acetamido]-N-[(1S)-1-(2-fluorophenyl)ethyl]benzamide] | ≤ 1 |
| ≤ 0.01 | CCN(C(=O)c1ccc(NC(=O)Cc2ccc(S(=O)(=O)CC3CC3)cc2)cc1)c1ccon1 [Example 103, 4-[2-(4-cyclopropylmethanesulfonylphenyl)acetamido]-N-ethyl-N-(1,2-oxazol-3-yl)benzamide] | ≤ 1 |
| ≤ 0.1 | CCCN(CC1CC1)C(=O)c1ccc(NC(=O)Cc2ccc(S(=O)(=O)CC3CC3)cc2)cc1 [Example 9, 4-[2-(4-cyclopropylmethanesulfonylphenyl)acetamido]-N-(cyclopropylmethyl)-N-propylbenzamide] | ≤ 1 |
| ≤ 0.1 | CCN(C(=O)c1ccc(NC(=O)Cc2ccc(S(=O)(=O)CC3CC3)cc2)nc1)c1ccccc1 [Example 51, 6-[2-(4-cyclopropylmethanesulfonylphenyl)acetamido]-N-ethyl-N-phenylpyridine-3-carboxamide] |  |
| ≤ 0.1 | CCN(C(=O)c1ccc(NC(=O)Cc2ccc(S(=O)(=O)CC3CC3)cc2)cc1)c1nccs1 [Example 84, 4-[2-(4-cyclopropylmethanesulfonylphenyl)acetamido]-N-ethyl-N-(1,3-thiazol-2-yl)benzamide] |  |
